Experiments:
Assay in all cases: normalised response (% of control), CellTiter-Glo; higher = more viable cells (100 = DMSO, 0 = benzethonium chloride kill control)
Settings in all cases: incubation time: 72 h
[1] = test system: BT-474
Outline: (§1)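 The table gives the normalised signal for a single concentration in each entry. Breast cancer cell lines were seeded (20 µl suspension) into 384-well plates holding compound at 5 concentrations in 10-fold steps over a compound-specific 10,000-fold range and incubated 72 h, then read for CellTox Green fluorescence (485/520 nm) and CellTiter-Glo luminescence. Normalisation on each plate used 0.1 % DMSO (100) and a positive kill control (0).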

[2] = test system: BT-549
Outline: as §1

[3] = test system: CAL-120
Outline: as §1

[4] = test system: CAL-148
Outline: as §1

[5] = test system: CAL-51
Outline: as §1

[6] = test system: CAL-85-1
Outline: as §1

[7] = test system: DU-4475
Outline: as §1

[8] = test system: HCC1143
Outline: as §1

[9] = test system: HCC1599
Outline: as §1

[10] = test system: HCC1937
Outline: as §1

[11] = test system: HDQ-P1
Outline: as §1

[12] = test system: Hs578T
Outline: as §1

[13] = test system: MCF-10A
Outline: as §1

[14] = test system: MDA-MB-231
Outline: as §1

[15] = test system: MDA-MB-436
Outline: as §1

[16] = test system: MDA-MB-453
Outline: as §1

[17] = test system: MDA-MB-468
Outline: as §1

[18] = test system: MFM-223
Outline: as §1

[19] = test system: SK-BR-3
Outline: as §1

Compound	normalised response [1]	normalised response [2]	normalised response [3]	normalised response [4]	normalised response [5]	normalised response [6]	normalised response [7]	normalised response [8]	normalised response [9]	normalised response [10]	normalised response [11]	normalised response [12]	normalised response [13]	normalised response [14]	normalised response [15]	normalised response [16]	normalised response [17]	normalised response [18]	normalised response [19]
CN1CCC(COc2cnc(-c3cccc(Cn4nc(-c5cccc(C#N)c5)ccc4=O)c3)nc2)CC1 (0.1 nM)	98.2%	95.1%	96.1%	103%	82.4%	92.8%	93.1%	94.6%	92.2%	94.5%	99.1%	96.4%	89.1%	98.5%	81.1%	105%	96.9%	94.2%	84.6%
CN(C)C/C=C/C(=O)Nc1cc2c(Nc3ccc(F)c(Cl)c3)ncnc2cc1O[C@H]1CCOC1 [Afatinib] (0.1 nM)	94.9%	97.3%	93.7%	103%	75%	116%	104%	93.2%	99%	96.6%	108%	99.6%	91.2%	103%	85.8%	111%	100%	96.2%	104%
COc1cc(Nc2ncc3c(n2)-c2ccc(Cl)cc2C(c2c(F)cccc2OC)=NC3)ccc1C(=O)O [Alisertib] (1 nM)	98.9%	95.6%	96.7%	89.3%	116%	91.9%	97%	91.6%	90.2%	88.4%	94.7%	95.6%	84%	93.3%	99%	95.9%	95.9%	92.9%	94.2%
COc1cc(Nc2ncc3c(n2)-c2ccc(Cl)cc2C(c2c(F)cccc2OC)=NC3)ccc1C(=O)O [Alisertib] (10 nM)	93.4%	96%	96.1%	91.9%	86.4%	94.4%	98.2%	93.9%	102%	95.9%	97.1%	97%	93%	95.3%	89.5%	88.3%	87.7%	88.6%	70.4%
CN1CC[C@H](c2c(O)cc(O)c3c(=O)cc(-c4ccccc4Cl)oc23)[C@H](O)C1 [Alvocidib] (10 nM)	98.7%	102%	92.4%	104%	125%	103%	104%	103%	103%	101%	99.2%	102%	110%	101%	106%	112%	99.9%	106%	106%
Nc1nc(Cl)nc2c1ncn2[C@H]1C[C@H](O)[C@@H](CO)O1 [Cladribine] (1 nM)	99.3%	97.2%	97.5%	103%	94.2%	102%	106%	104%	102%	101%	97.8%	105%	104%	100%	102%	113%	102%	105%	
Nc1ccn([C@@H]2O[C@H](CO)[C@@H](O)[C@@H]2O)c(=O)n1 [Cytarabine] (10 nM)	97.6%	96.8%	96.4%	102%	80.4%	99%	99.4%	99.3%	90.2%	96.5%	107%	114%	112%	99.2%	105%	109%	93.8%	107%	
Cc1c2oc3c(C)ccc(C(=O)N[C@@H]4C(=O)N[C@H](C(C)C)C(=O)N5CCC[C@H]5C(=O)N(C)CC(=O)N(C)[C@@H](C(C)C)C(=O)O[C@@H]4C)c3nc-2c(C(=O)N[C@@H]2C(=O)N[C@H](C(C)C)C(=O)N3CCC[C@H]3C(=O)N(C)CC(=O)N(C)[C@@H](C(C)C)C(=O)O[C@@H]2C)c(N)c1=O [Dactinomycin] (1 nM)	79.4%	71.9%	90.3%	81.8%	99.9%	90.8%	97%	80.8%	102%	79.9%	71.4%	105%	77.8%	97.7%	87%	94%	60.3%	105%	
COc1cccc2c1C(=O)c1c(O)c3c(c(O)c1C2=O)C[C@@](O)(C(=O)CO)C[C@@H]3O[C@H]1C[C@H](N)[C@H](O)[C@H](C)O1 [Doxorubicin] (1 nM)	101%	94.2%	93.6%	95.7%	107%	103%	108%	99.1%	120%	98.6%	101%	100%	110%	99.5%	107%	113%	104%	105%	
Cc1ccc(F)c(NC(=O)Nc2ccc(-c3cccc4[nH]nc(N)c34)cc2)c1 [Linifanib] (1 nM)	106%	104%	102%	114%	100%	103%	111%	110%	112%	101%	104%	98.9%	109%	106%	101%	113%	106%	112%	
CC(=O)O[C@]1(C(C)=O)CC[C@H]2[C@@H]3C=C(C)C4=CC(=O)CC[C@]4(C)[C@H]3CC[C@@]21C [Megestrol acetate] (1 nM)	95.9%	97.7%	94.9%	99.9%	120%	98.9%	97.5%	95.2%	96.5%	95.4%	99.8%	96.8%	101%	98.5%	101%	131%	88.8%	98%	99.2%
CC(=O)O[C@]1(C(C)=O)CC[C@H]2[C@@H]3C=C(C)C4=CC(=O)CC[C@]4(C)[C@H]3CC[C@@]21C [Megestrol acetate] (10 nM)	102%	100%	98.1%	86.9%	83.4%	98%	96.6%	104%	105%	95%	104%	96.9%	107%	101%	96.3%	103%	107%	97.1%	102%
S=c1[nH]cnc2nc[nH]c12 [Mercaptopurine] (10 nM)	98.6%	97.7%	98.5%	83.4%	119%	94.5%	98.5%	106%	89.8%	93.1%	97.1%	100%	103%	96%	98%	93%	94.3%	97.2%	109%
Clc1ccc(C(c2ccccc2Cl)C(Cl)Cl)cc1 (stereo not given) [Mitotane] (10 nM)	93.1%	104%	101%	91.2%	104%	106%	103%	101%	132%	99%	97%	103%	96.4%	99.8%	89.8%	109%	94%	99%	98.1%
CCN1CCN(c2ccc(Nc3cc(N(C)C(=O)Nc4c(Cl)c(OC)cc(OC)c4Cl)ncn3)cc2)CC1 [NVP-BGJ398] (0.1 nM)	96.7%	99.8%	92%	97.7%	74.7%	93.4%	101%	98.2%	98.7%	95.6%	101%	97.3%	101%	95.4%	97.6%	84.1%	88.2%	96.6%	99%
CCN1CCN(c2ccc(Nc3cc(N(C)C(=O)Nc4c(Cl)c(OC)cc(OC)c4Cl)ncn3)cc2)CC1 [NVP-BGJ398] (1 nM)	94.9%	96%	97.2%	96.1%	118%	98.3%	99%	98.8%	88.4%	104%	101%	103%	108%	95.8%	97.7%	97.7%	100%	97.1%	108%
COc1cccc2cc(-c3nc([C@H]4CC[C@H](C(=O)O)CC4)n4ncnc(N)c34)[nH]c12 [OSI-027] (10 nM)	101%	93.8%	101%	88.7%	82.7%	90.7%	97.1%	96.6%	92.7%	94.2%	100%	97.7%	98.8%	96%	93.8%	94.3%	94.6%	93%	77.3%
OC[C@H]1O[C@@H](n2cnc3c2N=CNC[C@H]3O)C[C@@H]1O [Pentostatin] (10 nM)	98%	91.2%	98%	102%	78%	102%	104%	98.9%	104%	98.2%	100%	106%	99.9%	99.2%	97.3%	103%	94.4%	101%	101%
N#CC[C@H](C1CCCC1)n1cc(-c2ncnc3[nH]ccc23)cn1 [Ruxolitinib] (10 nM)	97%	98.3%	104%	86%	121%	91.2%	97.4%	100%	76.5%	89.3%	94%	96.2%	88.8%	95.2%	92.2%	83.8%	100%	92.6%	81.5%
C=CC[C@@H]1/C=C(\C)C[C@H](C)C[C@H](OC)[C@H]2O[C@@](O)(C(=O)C(=O)N3CCCC[C@H]3C(=O)O[C@H](/C(C)=C/[C@@H]3CC[C@@H](O)[C@H](OC)C3)[C@H](C)[C@@H](O)CC1=O)[C@H](C)C[C@@H]2OC [Tacrolimus] (10 nM)	105%	101%	97.7%	97.4%	110%	99%	105%	103%	102%	100%	100%	103%	103%	100%	106%	109%	97.6%	98.8%	119%
